{"source": "patent US20220079912A1", "about": "“ANTICANCER FORMULATION” (University of Mississippi, priority 2018, published 2022)", "key": {"[1]": {"tested_on": "T98G human glioblastoma cells", "experiment": "Lactic acid accumulation in cell culture medium", "format": "cell-based", "conditions": "FIG. 2B", "source_text": "Acidification of the cell culture medium occurs because of the enhanced use of glycolysis by transformed cells (and resulting increase in lactic acid production). This led us to investigate whether GH reduced lactic acid levels in the cell culture medium."}, "[2]": {"tested_on": "T98G cells", "experiment": "Glucose transport (2-NBDG accumulation)", "format": "cell-based, human", "conditions": "treated for one hour followed by 2-NBDG for one hour"}, "[3]": {"tested_on": "B16 cells", "experiment": "Glucose transport (2-NBDG accumulation)", "format": "cell-based, mouse", "conditions": "B16, treated for one hour followed by 2-NBDG for one hour"}, "[4]": {"tested_on": "KB (HeLa)", "experiment": "Combination cytotoxicity with phenformin", "format": "cell-based", "conditions": "data not shown"}, "[5]": {"tested_on": "bulk tumor cells from two patients with Temodar (TMZ)-resistant glioblastoma", "experiment": "Combination cytotoxicity with Paw Paw acetogenin extract", "format": "cell-based, human", "conditions": "GH 4 μM, FIG. 11", "excerpt": "(§1) Example 3: Paw Paw Extract."}, "[6]": {"tested_on": "cancer stem cell (CSC) populations from two patients with Temodar (TMZ)-resistant glioblastoma", "experiment": "Combination cytotoxicity with Paw Paw acetogenin extract", "format": "cell-based, human", "conditions": "GH 4 μM, FIG. 11", "excerpt": "as §1"}, "[7]": {"tested_on": "ARRDC4 mRNA", "experiment": "Differential gene expression analysis (RNA-Seq) in T98G cells", "format": "cell-based, human", "conditions": "2 hours, GH 8 μM, 2-DG 25 mM, Ph 100, minus = reduced, plus = increase, NC = no change", "excerpt": "(§2) GH inhibits expression of TXNIP and ARRDC4 mRNAs. […] Since the transcription factors (MondoA/Mlx complex) regulating the expression of the TXNIP gene is thought to be controlled by intermediates in the upper portion of the glycolytic pathway (12), GH may be negatively impacting this portion of glycolysis. Reduction in the levels of these intermediates by GH would prevent activation of the MondoA/Mlx transcription complex and would result in suppression of TXNIP transcription and TXNIP mRNA levels. Both of these gene products (TXNIP and ARRDC4) are thought to suppress glucose transport by enhancing degradation of glucose transporters (12)."}, "[8]": {"tested_on": "TXNIP mRNA", "experiment": "Differential gene expression analysis (RNA-Seq) in T98G cells", "format": "cell-based, human", "conditions": "2 hours, GH 8 μM, 2-DG 25 mM, Ph 100, minus = reduced, plus = increase, NC = no change", "excerpt": "as §2"}, "[9]": {"tested_on": "TXNIP protein levels", "experiment": "Western blot of TXNIP protein, MDA-MB-231 cell line", "format": "cell-based, human", "conditions": "FIG. 16, FIG. 18", "excerpt": "AMPK activation has been previously shown to phosphorylate and cause the degradation of TXNIP during energy stress (13)."}, "[10]": {"tested_on": "SKOV-3 ovarian cancer", "experiment": "Colony formation assay, combination with DHEA", "format": "cell-based, human", "conditions": "SKOV-3, 24 h, FIG. 20"}, "[11]": {"tested_on": "U87MG Glioma cells", "experiment": "Colony formation assay, combination with DHEA", "format": "cell-based, human", "conditions": "24 h, FIG. 20"}, "[12]": {"tested_on": "BNC3 patient derived Glioblastoma cells", "experiment": "Colony formation assay, combination with DHEA", "format": "cell-based, human", "conditions": "BNC3, 24 h, FIG. 20"}, "[13]": {"tested_on": "BNC6 patient derived Glioblastoma cells", "experiment": "Colony formation assay, combination with DHEA", "format": "cell-based, human", "conditions": "BNC6, 24 h, FIG. 20"}, "[14]": {"tested_on": "cancer stem cells (CSCs) grown from BNC3 patient derived Glioblastoma cells", "experiment": "Cell viability by Trypan Blue exclusion cell count, combination with DHEA", "format": "cell-based, human", "conditions": "24 h, FIGS. 21A-B"}}, "data": [{"smiles": "Oc1ccc(/C=C/c2c3c(cc4c2[C@H](c2cc(O)cc(O)c2)[C@@H](c2ccc(O)cc2)O4)O[C@H](c2ccc(O)cc2)[C@H]3c2cc(O)cc(O)c2)cc1", "note": "(relative stereo) [GH, trans-Gnetin H]", "values": [{"measurement": "lactic acid production", "setting": "[1]", "result": "inhibits lactic acid production"}, {"measurement": "effect on accumulation of 2-NBDG (glucose transport)", "setting": "[2]", "result": "did not influence the accumulation"}, {"measurement": "effect on accumulation of 2-NBDG (glucose transport)", "setting": "[3]", "result": "did not influence the accumulation"}, {"measurement": "synergistic cytotoxicity with phenformin", "setting": "[4]", "result": "synergistically cytotoxic"}, {"measurement": "synergistic cytotoxicity in combination with acetogenin extract from Paw Paw (PP-2 μg/ml)", "setting": "[5]", "result": "synergistically cytotoxic"}, {"measurement": "synergistic cytotoxicity in combination with acetogenin extract from Paw Paw (PP-2 μg/ml)", "setting": "[6]", "result": "synergistically cytotoxic"}, {"measurement": "ARRDC4 mRNA fold change", "setting": "[7]", "result": "−6", "unit": "fold"}, {"measurement": "TXNIP mRNA fold change", "setting": "[8]", "result": "−88", "unit": "fold"}, {"measurement": "TXNIP protein levels, in combination with Ph", "setting": "[9]", "result": "reduction of TXNIP protein levels"}, {"measurement": "TXNIP protein levels, agent alone", "setting": "[9]; GH 8 μM 6 hrs or 3 hrs, 2-DG 25 mM, OXA 25 mM, BPX 25 μM, DCA 25 mM, 6 hr", "result": "dramatic reduction in the levels of TXNIP protein"}, {"measurement": "cytotoxicity in combination with DHEA (cell staining)", "setting": "[10]", "result": "cytotoxic"}, {"measurement": "cytotoxicity in combination with DHEA (cell staining)", "setting": "[11]", "result": "cytotoxic"}, {"measurement": "cytotoxicity in combination with DHEA (cell staining)", "setting": "[12]", "result": "cytotoxic"}, {"measurement": "cytotoxicity in combination with DHEA (cell staining)", "setting": "[13]", "result": "cytotoxic"}, {"measurement": "cytotoxicity in combination with DHEA (percentage of cell viability)", "setting": "[14]", "result": "cytotoxic"}]}]}
